Assay results published in ChEMBL document CHEMBL2424558, “Synthesis and biological evaluation of novel quinazoline derivatives obtained by Suzuki CC coupling” (2013).
Values after ≈ are worked out from the molar mass of the structure shown.

Tests used:
Type in all cases: functional
[1] = test system: Staphylococcus aureus; test: Antibacterial activity against Staphylococcus aureus MTCC 96
[2] = test system: Escherichia coli; test: Antibacterial activity against Escherichia coli MTCC 739
[3] = test system: Candida albicans; test: Antifungal activity against Candida albicans MTCC 183; conditions: for MIC: Candida albicans, MTCC 183
[4] = test system: Bacillus cereus; test: Antibacterial activity against Bacillus cereus MTCC 430
[5] = test system: Pseudomonas aeruginosa; test: Antibacterial activity against Pseudomonas aeruginosa MTCC 741
[6] = test system: Mycobacterium tuberculosis; test: Antimycobacterial activity against Mycobacterium tuberculosis H37Rv; conditions: for MIC: Mycobacterium tuberculosis, H37Rv
[7] = test system: Klebsiella pneumoniae; test: Antibacterial activity against Klebsiella pneumoniae MTCC 109
[8] = test system: Aspergillus niger; test: Antifungal activity against Aspergillus niger MTCC 282; conditions: for MIC: Aspergillus niger, MTCC 282
[9] = Pseudomonas aeruginosa, MTCC 741
[10] = Klebsiella pneumoniae, MTCC 109

Molecule | inhibition zone (IZ) [1] | MIC ([1]; Staphylococcus aureus, MTCC 96) | inhibition zone (IZ) [2] | MIC ([2]; Escherichia coli, MTCC 739) | inhibition zone (IZ) [3] | MIC [3] | inhibition zone (IZ) [4] | MIC ([4]; Bacillus cereus, MTCC 430) | inhibition zone (IZ) [5] | MIC [5, 9] | inhibition (INH) [6] | MIC [6] | inhibition zone (IZ) [7] | MIC [7, 10] | inhibition zone (IZ) [8] | MIC [8] | also measured
Cc1ccc(NC(=S)Nc2ccc(-c3nc(Oc4cccc(C)c4)c4ccccc4n3)cc2)cc1 | 22 mm | 50 µg/mL (≈ 105 µM) | 23 mm | 50 µg/mL (≈ 105 µM) | 23 mm | 50 µg/mL (≈ 105 µM) | 21 mm | 200 µg/mL (≈ 420 µM) | 23 mm | 50 µg/mL (≈ 105 µM) | 94% | 100 µg/mL (≈ 210 µM) | 21 mm | 50 µg/mL (≈ 105 µM) | 18 mm | 200 µg/mL (≈ 420 µM) | –
NC(=O)c1cnccn1 [PYRAZINAMIDE] | – | – | – | – | – | – | – | – | – | – | 99% | 6.25 µg/mL (≈ 50.8 µM) | – | – | – | – | –
Cc1cccc(Oc2nc(-c3ccc(NC(=O)Nc4ccc(F)cc4)cc3)nc3ccccc23)c1 | 22 mm | 200 µg/mL (≈ 431 µM) | 23 mm | 62.5 µg/mL (≈ 135 µM) | 26 mm | 12.5 µg/mL (≈ 26.9 µM) | 21 mm | 100 µg/mL (≈ 215 µM) | 23 mm | 100 µg/mL (≈ 215 µM) | 97% | 62.5 µg/mL (≈ 135 µM) | 21 mm | 200 µg/mL (≈ 431 µM) | 23 mm | 25 µg/mL (≈ 53.8 µM) | –
Cc1cccc(Oc2nc(-c3ccc(NC(=S)Nc4ccc(F)cc4)cc3)nc3ccccc23)c1 | 24 mm | 25 µg/mL (≈ 52 µM) | 27 mm | 25 µg/mL (≈ 52 µM) | 25 mm | 6.25 µg/mL (≈ 13 µM) | 27 mm | 200 µg/mL (≈ 416 µM) | 25 mm | 50 µg/mL (≈ 104 µM) | 96% | 50 µg/mL (≈ 104 µM) | 24 mm | 100 µg/mL (≈ 208 µM) | 22 mm | 50 µg/mL (≈ 104 µM) | –
Cc1ccc(NC(=O)Nc2ccc(-c3nc(Oc4cccc(C)c4)c4ccccc4n3)cc2)cc1 | 23 mm | 100 µg/mL (≈ 217 µM) | 24 mm | 25 µg/mL (≈ 54.3 µM) | 24 mm | 50 µg/mL (≈ 109 µM) | 24 mm | 250 µg/mL (≈ 543 µM) | 27 mm | 25 µg/mL (≈ 54.3 µM) | 95% | 200 µg/mL (≈ 434 µM) | 24 mm | 50 µg/mL (≈ 109 µM) | 21 mm | 200 µg/mL (≈ 434 µM) | –
Cc1cccc(Oc2nc(-c3ccc(NC(=S)Nc4ccc(Cl)cc4)cc3)nc3ccccc23)c1 | 24 mm | 12.5 µg/mL (≈ 25.1 µM) | 27 mm | 25 µg/mL (≈ 50.3 µM) | 28 mm | 25 µg/mL (≈ 50.3 µM) | 27 mm | 50 µg/mL (≈ 101 µM) | 26 mm | 12.5 µg/mL (≈ 25.1 µM) | 98% | 25 µg/mL (≈ 50.3 µM) | 27 mm | 25 µg/mL (≈ 50.3 µM) | 24 mm | 12.5 µg/mL (≈ 25.1 µM) | –
OC(Cn1cncn1)(Cn1cncn1)c1ccc(F)cc1F [FLUCONAZOLE] | – | – | – | – | 31 mm | 12.5 µg/mL (≈ 40.8 µM) | – | – | – | – | – | – | – | – | 30 mm | 6.25 µg/mL (≈ 20.4 µM) | –
NNC(=O)c1ccncc1 [ISONIAZID] | – | – | – | – | – | – | – | – | – | – | – | 0.2 µg/mL (≈ 1.46 µM) | – | – | – | – | –
Cc1cccc(Oc2nc(-c3ccc(NC(=S)Nc4ccc(Br)cc4)cc3)nc3ccccc23)c1 | 29 mm | 6.25 µg/mL (≈ 11.5 µM) | 25 mm | 50 µg/mL (≈ 92.3 µM) | 27 mm | 12.5 µg/mL (≈ 23.1 µM) | 26 mm | 12.5 µg/mL (≈ 23.1 µM) | 25 mm | 25 µg/mL (≈ 46.2 µM) | 99% | 12.5 µg/mL (≈ 23.1 µM) | 27 mm | 12.5 µg/mL (≈ 23.1 µM) | 23 mm | 25 µg/mL (≈ 46.2 µM) | –
Cc1cccc(Oc2nc(-c3ccc(NC(=S)Nc4ccccc4)cc3)nc3ccccc23)c1 | 27 mm | 200 µg/mL (≈ 432 µM) | 26 mm | 250 µg/mL (≈ 540 µM) | 25 mm | 200 µg/mL (≈ 432 µM) | 24 mm | 50 µg/mL (≈ 108 µM) | 25 mm | 50 µg/mL (≈ 108 µM) | 95% | 100 µg/mL (≈ 216 µM) | 22 mm | 200 µg/mL (≈ 432 µM) | 23 mm | 50 µg/mL (≈ 108 µM) | –
COc1ccc(NC(=O)Nc2ccc(-c3nc(Oc4cccc(C)c4)c4ccccc4n3)cc2)cc1 | 23 mm | 25 µg/mL (≈ 52.5 µM) | 24 mm | 200 µg/mL (≈ 420 µM) | 25 mm | 25 µg/mL (≈ 52.5 µM) | 22 mm | 50 µg/mL (≈ 105 µM) | 26 mm | 25 µg/mL (≈ 52.5 µM) | 94% | 62.5 µg/mL (≈ 131 µM) | 26 mm | 200 µg/mL (≈ 420 µM) | 23 mm | 50 µg/mL (≈ 105 µM) | –
CCOc1ccc(NC(=O)Nc2ccc(-c3nc(Oc4cccc(C)c4)c4ccccc4n3)cc2)cc1 | 22 mm | 50 µg/mL (≈ 102 µM) | 24 mm | 200 µg/mL (≈ 408 µM) | 27 mm | 50 µg/mL (≈ 102 µM) | 24 mm | 25 µg/mL (≈ 51 µM) | 26 mm | 50 µg/mL (≈ 102 µM) | 96% | 100 µg/mL (≈ 204 µM) | 25 mm | 25 µg/mL (≈ 51 µM) | 23 mm | 50 µg/mL (≈ 102 µM) | –
CC[C@@H](CO)NCCN[C@@H](CC)CO [ETHAMBUTOL] | – | – | – | – | – | – | – | – | – | – | 99% | 3.12 µg/mL (≈ 15.3 µM) | – | – | – | – | –
Cc1cccc(Oc2nc(-c3ccc(NC(=O)Nc4ccc(Br)cc4)cc3)nc3ccccc23)c1 | 24 mm | 12.5 µg/mL (≈ 23.8 µM) | 27 mm | 62.5 µg/mL (≈ 119 µM) | 24 mm | 50 µg/mL (≈ 95.2 µM) | 28 mm | 12.5 µg/mL (≈ 23.8 µM) | 25 mm | 25 µg/mL (≈ 47.6 µM) | 99% | 25 µg/mL (≈ 47.6 µM) | 24 mm | 50 µg/mL (≈ 95.2 µM) | 22 mm | 62.5 µg/mL (≈ 119 µM) | –
Cc1cccc(Oc2nc(-c3ccc(NC(=O)Nc4ccccc4)cc3)nc3ccccc23)c1 | 22 mm | 200 µg/mL (≈ 448 µM) | 23 mm | 100 µg/mL (≈ 224 µM) | 23 mm | 250 µg/mL (≈ 560 µM) | 20 mm | 250 µg/mL (≈ 560 µM) | 21 mm | 62.5 µg/mL (≈ 140 µM) | 95% | 250 µg/mL (≈ 560 µM) | 19 mm | 100 µg/mL (≈ 224 µM) | 22 mm | 200 µg/mL (≈ 448 µM) | –
CCOc1ccc(NC(=S)Nc2ccc(-c3nc(Oc4cccc(C)c4)c4ccccc4n3)cc2)cc1 | 22 mm | 12.5 µg/mL (≈ 24.7 µM) | 24 mm | 62.5 µg/mL (≈ 123 µM) | 22 mm | 50 µg/mL (≈ 98.7 µM) | 19 mm | 100 µg/mL (≈ 197 µM) | 26 mm | 12.5 µg/mL (≈ 24.7 µM) | 95% | 200 µg/mL (≈ 395 µM) | 23 mm | 25 µg/mL (≈ 49.3 µM) | 26 mm | 25 µg/mL (≈ 49.3 µM) | –
GENTAMICIN | – | – | – | – | – | – | 30 mm | – | – | – | – | – | 30 mm | – | – | – | MIC [1]: 6.25 µg/mL; MIC [2]: 12.5 µg/mL; MIC [4]: 6.25 µg/mL; MIC [5]: 12.5 µg/mL; MIC [7]: 25 µg/mL
COc1ccc(NC(=S)Nc2ccc(-c3nc(Oc4cccc(C)c4)c4ccccc4n3)cc2)cc1 | 25 mm | 12.5 µg/mL (≈ 25.4 µM) | 27 mm | 25 µg/mL (≈ 50.8 µM) | 28 mm | 12.5 µg/mL (≈ 25.4 µM) | 24 mm | 50 µg/mL (≈ 102 µM) | 27 mm | 25 µg/mL (≈ 50.8 µM) | 97% | 100 µg/mL (≈ 203 µM) | 24 mm | 50 µg/mL (≈ 102 µM) | 21 mm | 50 µg/mL (≈ 102 µM) | –
CC1(C)S[C@@H]2[C@H](NC(=O)[C@H](N)c3ccccc3)C(=O)N2[C@H]1C(=O)O [AMPICILLIN] | 30 mm | 12.5 µg/mL (≈ 35.8 µM) | 31 mm | 6.25 µg/mL (≈ 17.9 µM) | – | – | 28 mm | 12.5 µg/mL (≈ 35.8 µM) | 28 mm | 25 µg/mL (≈ 71.5 µM) | – | – | 33 mm | 25 µg/mL (≈ 71.5 µM) | – | – | –
Cc1cccc(Oc2nc(-c3ccc(NC(=O)Nc4ccc(Cl)cc4)cc3)nc3ccccc23)c1 | 25 mm | 50 µg/mL (≈ 104 µM) | 27 mm | 62.5 µg/mL (≈ 130 µM) | 21 mm | 100 µg/mL (≈ 208 µM) | 24 mm | 100 µg/mL (≈ 208 µM) | 24 mm | 50 µg/mL (≈ 104 µM) | 98% | 100 µg/mL (≈ 208 µM) | 23 mm | 62.5 µg/mL (≈ 130 µM) | 26 mm | 200 µg/mL (≈ 416 µM) | –
CO[C@H]1/C=C/O[C@@]2(C)Oc3c(C)c(O)c4c(O)c(c(/C=N/N5CCN(C)CC5)c(O)c4c3C2=O)NC(=O)/C(C)=C\C=C\[C@H](C)[C@H](O)[C@@H](C)[C@@H](O)[C@@H](C)[C@H](OC(C)=O)[C@@H]1C [RIFAMPIN] | – | – | – | – | – | – | – | – | – | – | 99% | 0.25 µg/mL (≈ 0.304 µM) | – | – | – | – | –
